Our source for the Ki values is patent US8481538B2, “Heterocyclic inhibitors of c-Met and uses thereof” (Vertex Pharmaceuticals Incorporated, priority 2006, dated 2013).

Where only a bound is given, the exact number is not on record here.

Broadly, the Ki is a measure of affinity in units of concentration, obtained from inhibition or displacement. Higher therefore signals lower affinity.

The target in the test is c-Met (Homo sapiens, UniProt P08581). Put plainly: Ki determination for the inhibition of c-Met (standard radiometric kinase assay). Particulars: radiometric 33P-ATP assay, 1.0 nM c-Met, 35 μM ATP, 0.5 mg/mL polyE4Y, competitive tight-binding fit. Format: biochemical. On the procedure: Ki Determination for the Inhibition of c-Met
Chain of c-Met (P08581 25-1390): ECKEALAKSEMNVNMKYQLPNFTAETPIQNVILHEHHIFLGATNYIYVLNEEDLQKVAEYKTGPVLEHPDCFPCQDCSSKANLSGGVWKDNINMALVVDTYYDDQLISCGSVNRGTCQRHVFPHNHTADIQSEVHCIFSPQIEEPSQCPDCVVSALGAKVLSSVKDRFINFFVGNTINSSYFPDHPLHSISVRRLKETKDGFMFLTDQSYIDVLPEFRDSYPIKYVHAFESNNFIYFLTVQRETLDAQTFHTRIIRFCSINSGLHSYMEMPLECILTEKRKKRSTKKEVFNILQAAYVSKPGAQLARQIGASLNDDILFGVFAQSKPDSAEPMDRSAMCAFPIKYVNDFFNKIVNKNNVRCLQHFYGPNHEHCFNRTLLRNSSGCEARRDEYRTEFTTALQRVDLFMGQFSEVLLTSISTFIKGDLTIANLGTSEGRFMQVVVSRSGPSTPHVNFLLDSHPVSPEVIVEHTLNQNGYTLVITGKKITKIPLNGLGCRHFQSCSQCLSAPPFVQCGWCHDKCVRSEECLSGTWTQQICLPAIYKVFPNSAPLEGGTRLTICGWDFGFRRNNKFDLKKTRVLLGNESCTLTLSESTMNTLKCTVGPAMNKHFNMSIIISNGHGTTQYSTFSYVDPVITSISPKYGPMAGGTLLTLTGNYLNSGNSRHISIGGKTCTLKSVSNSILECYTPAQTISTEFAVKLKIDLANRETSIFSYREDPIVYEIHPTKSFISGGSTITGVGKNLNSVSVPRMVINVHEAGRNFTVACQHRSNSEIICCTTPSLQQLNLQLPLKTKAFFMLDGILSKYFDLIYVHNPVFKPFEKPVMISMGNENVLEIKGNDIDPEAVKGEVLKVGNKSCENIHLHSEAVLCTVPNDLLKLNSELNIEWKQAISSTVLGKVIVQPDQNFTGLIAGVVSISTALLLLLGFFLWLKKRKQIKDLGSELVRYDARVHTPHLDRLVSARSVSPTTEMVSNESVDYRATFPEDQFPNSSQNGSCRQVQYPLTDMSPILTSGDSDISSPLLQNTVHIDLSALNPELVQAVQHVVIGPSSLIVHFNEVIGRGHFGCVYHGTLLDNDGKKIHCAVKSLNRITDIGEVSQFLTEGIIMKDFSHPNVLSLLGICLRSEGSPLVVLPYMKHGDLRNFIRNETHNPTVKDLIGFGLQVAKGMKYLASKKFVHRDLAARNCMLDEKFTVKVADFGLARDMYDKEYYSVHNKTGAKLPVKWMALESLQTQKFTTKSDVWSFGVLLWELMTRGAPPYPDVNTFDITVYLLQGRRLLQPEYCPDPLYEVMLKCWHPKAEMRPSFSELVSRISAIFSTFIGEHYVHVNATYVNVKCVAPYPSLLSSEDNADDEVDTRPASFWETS
Compounds of the invention were screened for their ability to inhibit c-Met kinase activity using a standard radiometric assay. Briefly, in this kinase assay the transfer of the terminal ^33P-phosphate in ^33P-ATP to substrate polyE4Y is interrogated. The assay was carried out in 96-well plates to a final volume of 100 μL per well containing 1.0 nM c-Met, 100 mM HEPES (pH 7.5), 10 mM MgCl2, 25 mM NaCl, 0.01% BSA, 1 mM DTT, 0.5 mg/mL polyE4Y, and 35 μM ATP. Accordingly, compounds of the invention were dissolved in DMSO to make 10 mM initial stock solutions. Serial dilutions in DMSO were then made to obtain the final solutions for the assay. A 1.5 μL aliquot of DMSO or inhibitor in DMSO was added to each well. The reaction was initiated by the addition of ^33P-ATP and polyE4Y (obtained from Sigma). After 20 min, the reaction was quenched with 50 μL of 30% trichloroacetic acid (TCA) containing 4 mM ATP. The reaction mixture was transferred to the 0.66 mm GF filter plates (Corning) and washed three times with 5% TCA. Following the addition of 50 μL of Ultimate Gold™ high efficiency scintillant (Packard Bioscience), the samples were counted in a Packard TopCount NXT Microplate Scintillation and Luminescence Counter (Packard BioScience). The Ki values were calculated using Microsoft Excel Solver macros to fit the data to the kinetic model for competitive tight-binding inhibition.
`C[C@@H](NC(=O)c1nc(-c2cnn(C3CCNCC3)c2)cnc1N)c1nnc2ccc(Nc3cccc(Cl)c3)nn12` [Compound 62] yielded a Ki of at most 250 nM. The result for `C[C@@H](NC(=O)c1cc(-c2cnn(C)c2)cnc1N)c1nnc2sc(Nc3cccc(Cl)c3)nn12` [Compound 63] reads 250 to 2500 nM. The result for `C[C@@H](NC(=O)c1nc(-c2ccccc2)cnc1N)c1nnc2ccc(Cl)nn12` [Compound 64] reads 250 to 2500 nM; that for `C[C@@H](NC(=O)c1nc(-c2ccc(CN)cc2)cnc1N)c1nnc2ccc(Nc3cccc(Cl)c3)nn12` [Compound 65], at most 250 nM; that for `C[C@@H](NC(=O)c1nc(-c2ccc(CN3CC[C@@H](O)C3)cc2)cnc1N)c1nnc2ccc(Nc3cccc(Cl)c3)nn12` [Compound 66], at most 250 nM. The figure for `C[C@@H](NC(=O)c1nc(-c2ccc(CN3CC[C@H](O)C3)cc2)cnc1N)c1nnc2ccc(Nc3cccc(Cl)c3)nn12` [Compound 67] is at most 250 nM; for `C[C@@H](NC(=O)c1nc(-c2ccc(C3(O)CCNCC3)cc2)cnc1N)c1nnc2ccc(Nc3cccc(Cl)c3)nn12` [Compound 68] it is at most 250 nM; for `C[C@@H](NC(=O)c1nc(-c2cccc(N3CCNCC3)c2)cnc1N)c1nnc2ccc(Nc3cccc(Cl)c3)nn12` [Compound 69] it is at most 250 nM. `C[C@@H](NC(=O)c1nc(-c2ccc(CN3CCCC3)c(F)c2)cnc1N)c1nnc2ccc(Nc3cccc(Cl)c3)nn12` [Compound 70] came in with a Ki of at most 250 nM. The compound `CCOc1ccc2nnc([C@@H](C)NC(=O)c3nc(-c4ccc(CN5CCCC5)cc4)cnc3N)n2n1` [Compound 71] displayed a Ki of 250 to 2500 nM. Consider `C[C@@H](NC(=O)c1nc(-c2ccc(N3CCNCC3)cc2)cnc1N)c1nnc2ccc(Nc3cccc(Cl)c3)nn12` [Compound 72], for which the Ki is at most 250 nM. `C[C@@H](NC(=O)c1nc(-c2ccccc2)cnc1N)c1nnc2sc(N)nn12` [Compound 74] returned a Ki of 250 to 2500 nM.

For `Cc1nn2c([C@@H](C)NC(=O)c3nc(-c4ccccc4)cnc3N)nnc2s1` [Compound 75], the Ki lay within 250 to 2500 nM. The figure for `C[C@@H](NC(=O)c1nc(-c2ccc(CN(C)C)cc2)cnc1N)c1nnc2ccc(Nc3cccc(Cl)c3)nn12` [Compound 76] is at most 250 nM; for `C[C@@H](NC(=O)c1nc(-c2cccc(C3CCNCC3)c2)cnc1N)c1nnc2ccc(Nc3cccc(Cl)c3)nn12` [Compound 77] it is at most 250 nM; for `CNCc1ccc(-c2cnc(N)c(C(=O)N[C@H](C)c3nnc4ccc(Nc5cccc(Cl)c5)nn34)n2)cc1` [Compound 78] it is at most 250 nM.

In the case of `Cc1ccc2nnc([C@@H](C)NC(=O)c3nc(-c4ccc(CN5CCCC5)cc4)cnc3N)n2n1` [Compound 79], the Ki fell in the range of 250 to 2500 nM. For `C[C@@H](NC(=O)c1nc(-c2ccc(CN3CCCC3)cc2)cnc1N)c1nnc2ccc(-c3ccccc3)nn12` [Compound 80], the Ki was at most 250 nM. In the case of `C[C@@H](NC(=O)c1nc(-c2cccs2)cnc1N)c1nnc2ccc(-c3ccccc3)nn12` [Compound 81], the inhibition constant (Ki) fell in the range of 250 to 2500 nM. The result for `C[C@@H](NC(=O)c1nc(-c2cnn(C)c2)cnc1N)c1nnc2ccc(-c3ccccc3)nn12` [Compound 82] reads 250 to 2500 nM; that for `C[C@@H](NC(=O)c1nc(-c2cnn(C3CCNCC3)c2)cnc1N)c1nnc2ccc(-c3ccccc3)nn12` [Compound 83], at most 250 nM.
